Counter-ions that a name gives are not always drawn.
Columns and labels:
[1] = Assay 3. In vitro Colonic Material Stability Assay; assay type: in vitro ADME; settings: colonic material slurry, anaerobic, 1 or 10 μM
[2] = Assay 1. Stability in Simulated Gastric Fluid (SGF); assay type: in vitro ADME; settings: SGF pH 1.6 with pepsin, 1 μM, 37° C.
Procedure, shortened: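 Compound at 1 μM final (from 1 mM DMSO stock) incubated at 37° C in SGF: NaCl medium at pH 1.6 with FaSSIF powder and 0.1 mg/mL pepsin, prepared fresh. Aliquots taken at T0 and regular intervals, quenched with equal volume acetonitrile; LC/MS gives degradation rate.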

[3] = Assay 2. Stability in Simulated Intestinal Fluid (SIF); assay type: in vitro ADME; settings: SIF pH 6.7 with pancreatin, 1 μM, 37° C.
Procedure, shortened: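 Compounds at 1 µM (from 1 mM DMSO stock) were incubated at 37 °C with agitation in simulated intestinal fluid: FaSSIF in pH 6.7 phosphate buffer with pancreatin. Aliquots taken from T0 onward were quenched with acetonitrile and analyzed by LC/MS for degradation rate.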

[4] = tested on: type II collagen arthritis; assay: In vivo rheumatoid arthritis model (semi-established type II collagen arthritis); design: species or system Lewis rats; settings: 10 mg/kg PO BID, rats
Method: A study was conducted to determine the efficacy of test articles dosed by the oral (PO) route for inhibition of the inflammation (paw swelling), cartilage destruction, and bone resorption that occurs in semi-established type II collagen arthritis in female Lewis rats. Rats (10 per group) were injected intradermally (ID) with porcine type II collagen to induce arthritis; one group of rats (4 per group) served as vehicle-treated naïve controls. […] Positive controls were treated PO, BID with the reference compound Tofacitinib citrate (10 mg/kg). The rats were euthanized for necropsy on study day 21 (animals #1-5 in each group, animals #1-2 in naïve group) or 22 (animals #6-10 in each group, animals #3-4 in naïve group). Efficacy evaluation was based on animal body weights (Table 9), daily ankle caliper measurements (FIG. 4), ankle diameter expressed as area under the curve (AUC) (Table 10), terminal hind paw weights (Table 11), histopathologic evaluation of hind paws (Ankle Inflammation score: Table 12, Ankle Pannus score: Table 13, Ankle Cartilage Damage score: Table 14, Ankle Bone Resorption score: Table 15, Ankle Periosteal Bone score: Table 16, Ankle Periosteal Bone Width: Table 17) and knees (Knee Inflammation score: Table 18, Knee Pannus score: Table 19, Knee Cartilage Damage score: Table 20, Knee Bone Resorption score: Table 21), and relative spleen to body weight ratio (Table 22). Terminal serum was analyzed by enzyme-linked immunosorbent assay (ELISA) for anti-type II collagen antibodies (IgG) (Table 23). […] Statistics were conducted using ordinary one-way ANOVA with Dunnett's multiple comparison correction in GraphPad Prism.

[5] = tested on: neutrophil; assay: Neutrophil chemokine production assay; assay type: cell-based, human; settings: 12 h
Method: A volume 25 mL of human blood was layered over 15 mL of Histopaque®-1077 and centrifuged at 500 g, RT, for 30 min with no break applied to the centrifuge. The PBMC band and Histopaque®-1077 layer were removed leaving behind the bottom red layer which was mixed with 40 mL of 1× red blood cell (RBC) lysis buffer (Sigma-Aldrich) was and split into two 50 mL tubes. The volume for both fractions was brought to 50 mL with RBC lysis buffer, mixed by inversion, and then incubated at RT for 10 min. Solutions were centrifuged at 250 g, for 10 min at RT and the supernatant liquids removed. The reddish pellets were re-suspended in 1 mL of RBC lysis buffer and combined. The cell suspension was incubated for 5 min at RT in RBC lysis buffer. After incubation 45 mL of Hanks Balanced Salt Solution with no calcium, magnesium or phenol red (HBSS−) was added, the cell suspension was spun (250 g for 10 min at RT), and supernatant liquids were removed. The white pellet was re-suspended in 1 mL of HBSS−, and cell counts were determined. The neutrophil cell suspension was brought to a concentration of 1.11e6 cells/mL in RPMI complete (Sigma-Aldrich), and 180 μL of cell suspension was transferred to all wells within a sterile 96-well tissue culture treated plate resulting in 2.0e5 cells/well. […] After incubation, 10 μL of 2 μg/mL LPS solution in RPMI complete was added to each well except for control wells, which received an additional 10 μL of media. Cells were incubated for 12 h (37° C., 5% CO2), after which plates were centrifuged at 250 g, RT, for 5 min and supernatant liquids were obtained and stored at −80° C. until analyzed via Luminex® Multiplex Assay for various chemokines and cytokines. Three data points were acquired from two different blood donors and averaged.

O=C(Cc1c[nH]c2ccccc12)Oc1cc(C(=O)O)cc(OC(=O)Cc2c[nH]c3ccccc23)c1OC(=O)Cc1c[nH]c2ccccc12 [Compound 200, 3,4,5-tris({[2-(1H-indol-3-yl)acetyl]oxy})benzoic acid]
Assay 3 (% Remaining at 24 h) [1]: A (<25% of the tested compound remaining)
Assay 1 (SGF) (% Remaining @ 1 hour) [2]: C (>75% of the tested compound remaining)
Assay 2 (SIF) (% @ Remaining 4 hours) [3]: A (<25% of the tested compound remaining)

CCC(=O)Oc1cc(C(=O)O)cc(OC(=O)CC)c1OC(=O)CC [Compound 201, 3,4,5-tris(propanoyloxy)benzoic acid]
Assay 3 (% Remaining at 24 h) [1]: A (<25% of the tested compound remaining)
Assay 1 (SGF) (% Remaining @ 1 hour) [2]: C (>75% of the tested compound remaining)
Assay 2 (SIF) (% @ Remaining 4 hours) [3]: A (<25% of the tested compound remaining)

CC(=O)O[C@H]1OC[C@H](OC(C)=O)[C@H](OC(C)=O)[C@H]1OC(C)=O [Compound 219, (2R,3R,4S,5S)-tetrahydro-2H-pyran-2,3,4,5-tetrayl tetraacetate]
Assay 3 (% Remaining at 24 h) [1]: A (<25% of the tested compound remaining)
Assay 1 (SGF) (% Remaining @ 1 hour) [2]: C (>75% of the tested compound remaining)
Assay 2 (SIF) (% @ Remaining 4 hours) [3]: A (<25% of the tested compound remaining)

C[C@@H]1CCN(C(=O)CC#N)C[C@@H]1N(C)c1ncnc2[nH]ccc12 [Tofacitinib citrate, reference compound]
Mean Ankle Diameter AUC (mm*day) [4]: 73.82 mm*day
Mean Ankle Periosteal Bone width (um) [4]: 0.00 um
Mean Knee Inflammation score (0-5) [4]: 0.10
Mean Terminal hind paw weights [4]: 1.4321 g
Mean body weight change, day −1 to 21 (%) [4]: 20.2%
Relative Spleen to Body Weight (Mean) [4]: 0.1796
Mean Ankle Bone Resorption score (0-5) ([4]; 0 = normal, 5 = severe): 0.00
Mean Ankle Cartilage Damage score (0-5) ([4]; 0 = normal, 5 = severe): 0.00
Mean Ankle Pannus score (0-5) ([4]; 0 = normal, 5 = severe): 0.00
Mean Ankle Periosteal Bone score (0-5) ([4]; 0 = normal, 5 = severe): 0.00
Mean Ankle inflammation score (0-5) ([4]; 0 = normal, 5 = severe): 1.4321
Mean Knee Bone Resorption score (0-5) ([4]; 0 = normal, 5 = severe): 0.00
Mean Knee Cartilage Damage score (0-5) ([4]; 0 = normal, 5 = severe): 0.00
Mean Knee Pannus score (0-5) ([4]; 0 = normal, 5 = severe): 0.00
Serum IgG ([4]; terminal serum ELISA for anti-type II collagen antibodies): 2524.70 µg/mL

CCCC(=O)O [butyrate]
% IL-8 (Vehicle + LPS = 100%) ([5]; 500.0 μM): ++ (++ = <70%Vehicle)
% MIP-1α (Vehicle + LPS = 100%) ([5]; 500.0 μM): +++ (+++ = <50% Vehicle)
% MIP-1β (DMSO + LPS = 100%) ([5]; 500.0 μM): +++ (+++ = <50% Vehicle)
% IL-8 (Vehicle + LPS = 100%) ([5]; 1000.0 μM): ++ (++ = <70%Vehicle)
% MIP-1α (Vehicle + LPS = 100%) ([5]; 1000.0 μM): +++ (+++ = <50% Vehicle)
% MIP-1β (DMSO + LPS = 100%) ([5]; 1000.0 μM): +++ (+++ = <50% Vehicle)

From patent publication US12115178B2, “Acylated active agents and methods of their use for the treatment of autoimmune disorders” (Flagship Pioneering Innovations V, Inc., priority 2018, dated 2024)
